Earlier results, collected in patent US20030045478A1, “Gamma-ketoacid dipeptide derivatives as inhibitors of caspase-3” (priority 2000, published 2003).

Legend:
caspase-3 = target: T1, caspase-3 (Homo sapiens, UniProt P42574)
T1 sequence (P42574 29-175 limits assumed): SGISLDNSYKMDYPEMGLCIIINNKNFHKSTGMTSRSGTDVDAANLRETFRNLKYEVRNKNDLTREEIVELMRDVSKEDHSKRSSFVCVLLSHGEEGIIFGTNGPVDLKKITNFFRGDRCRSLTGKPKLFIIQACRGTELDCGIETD
T1 sequence (P42574 176-277 limits assumed): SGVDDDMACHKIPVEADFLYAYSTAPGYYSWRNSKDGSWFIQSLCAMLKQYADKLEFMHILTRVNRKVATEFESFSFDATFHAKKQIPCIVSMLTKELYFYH

caspase-1 = target: T2, caspase-1 (Homo sapiens, UniProt P29466)
T2 sequence (P29466 120-297 limits assumed): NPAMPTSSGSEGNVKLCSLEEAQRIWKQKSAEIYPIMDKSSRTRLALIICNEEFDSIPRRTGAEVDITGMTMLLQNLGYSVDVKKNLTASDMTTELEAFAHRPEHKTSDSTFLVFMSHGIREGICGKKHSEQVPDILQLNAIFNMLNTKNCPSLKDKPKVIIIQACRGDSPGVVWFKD
T2 sequence (P29466 317-404 limits assumed): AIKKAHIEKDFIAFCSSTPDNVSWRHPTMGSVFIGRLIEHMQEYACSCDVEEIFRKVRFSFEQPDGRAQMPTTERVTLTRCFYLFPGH

For Ac-YVAD-CHO, the Ki (caspase-3) is given as 12 µM and the Ki (caspase-1) is given as under 0.001 µM.
